Experimental data published in ChEMBL document CHEMBL5247587, “Discovery of benzimidazole substituted 1, 2, 4-oxadiazole compounds as novel anti-HBV agents with TLR8-agonistic activities” (Eur J Med Chem, 2022).
Calls of active or inactive are those of the source. No cut-off for these calls is given here.

How the values were obtained:
[1] = Selectivity index, ratio of CC50 for human HepG2 2.2.15 cells to IC50 for HBV infected in human HepG2 2.2.15 cells; assay type: toxicity, cell-based; settings: read-out: Ratio CC50/IC50
[2] = tested on: Hepatitis B virus; assay: Antiviral activity against HBV infected in human HepG2 2.2.15 cells assessed as inhibition of viral DNA replication at 4 uM incubated for 6 days with every 2 days media replacement by RT-PCR analysis relative to control; assay type: functional; parameters: scale not given: the % may be the effect or the level left; settings: time 6 day
[3] = tested on: Hepatitis B virus; assay: Antiviral activity against HBV infected in human HepG2 2.2.15 cells assessed as inhibition of viral DNA replication incubated for 6 days with every 2 days media replacement by RT-PCR analysis; assay type: functional, organism-based
[4] = Cytotoxicity against human HepG2 2.2.15 cells assessed as reduction in cell viability incubated for 72 hrs by CCK8 assay; assay type: toxicity, cell-based
[5] = tested on: Hepatitis B virus; assay: Antiviral activity against HBV infected in ETV/LAM-resistant human HepG2.A64 cells assessed as inhibition of viral DNA replication incubated for 72 hrs by RT-PCR analysis; assay type: functional, organism-based; settings: HepG2.A64, 72 h
[6] = Cytotoxicity against human HepG2.A64 cells assessed as reduction in cell viability incubated for 72 hrs by CCK8 assay; assay type: toxicity, cell-based
[7] = tested on: Hepatitis B virus; assay: Potency index, ratio of LAM IC50 to test compound IC50 for HBV infected in ETV/LAM-resistant human HepG2.A64 cells assessed as inhibition of viral DNA replication; assay type: functional
[8] = Selectivity index, ratio of CC50 for human HepG2.A64 cells to IC50 for HBV infected in ETV/LAM-resistant human HepG2.A64 cells; assay type: toxicity; settings: read-out: Ratio CC50/IC50
[9] = target: Nuclear factor NF-kappa-B complex (Homo sapiens) (UniProt Q00653+P19838+Q04206); assay: Activation of NF-kappaB (unknown origin) transfected in HEK293T cells at 0.4 to 10 uM incubated for 48 hrs by Dual-luciferase reporter gene assay; assay type: cell-based; settings: dose 0.4-10 µM
[10] = target: T1, Toll-like receptor 8 (Homo sapiens) (UniProt Q9NR97); assay: Agonist activity at TLR8 in human PBMC cells assessed as increase in IL-12 level incubated for 24 hrs by ELISA; assay type: cell-based; settings: filed as agonist, dose 0.4-10 µM
T1 sequence (whole entry): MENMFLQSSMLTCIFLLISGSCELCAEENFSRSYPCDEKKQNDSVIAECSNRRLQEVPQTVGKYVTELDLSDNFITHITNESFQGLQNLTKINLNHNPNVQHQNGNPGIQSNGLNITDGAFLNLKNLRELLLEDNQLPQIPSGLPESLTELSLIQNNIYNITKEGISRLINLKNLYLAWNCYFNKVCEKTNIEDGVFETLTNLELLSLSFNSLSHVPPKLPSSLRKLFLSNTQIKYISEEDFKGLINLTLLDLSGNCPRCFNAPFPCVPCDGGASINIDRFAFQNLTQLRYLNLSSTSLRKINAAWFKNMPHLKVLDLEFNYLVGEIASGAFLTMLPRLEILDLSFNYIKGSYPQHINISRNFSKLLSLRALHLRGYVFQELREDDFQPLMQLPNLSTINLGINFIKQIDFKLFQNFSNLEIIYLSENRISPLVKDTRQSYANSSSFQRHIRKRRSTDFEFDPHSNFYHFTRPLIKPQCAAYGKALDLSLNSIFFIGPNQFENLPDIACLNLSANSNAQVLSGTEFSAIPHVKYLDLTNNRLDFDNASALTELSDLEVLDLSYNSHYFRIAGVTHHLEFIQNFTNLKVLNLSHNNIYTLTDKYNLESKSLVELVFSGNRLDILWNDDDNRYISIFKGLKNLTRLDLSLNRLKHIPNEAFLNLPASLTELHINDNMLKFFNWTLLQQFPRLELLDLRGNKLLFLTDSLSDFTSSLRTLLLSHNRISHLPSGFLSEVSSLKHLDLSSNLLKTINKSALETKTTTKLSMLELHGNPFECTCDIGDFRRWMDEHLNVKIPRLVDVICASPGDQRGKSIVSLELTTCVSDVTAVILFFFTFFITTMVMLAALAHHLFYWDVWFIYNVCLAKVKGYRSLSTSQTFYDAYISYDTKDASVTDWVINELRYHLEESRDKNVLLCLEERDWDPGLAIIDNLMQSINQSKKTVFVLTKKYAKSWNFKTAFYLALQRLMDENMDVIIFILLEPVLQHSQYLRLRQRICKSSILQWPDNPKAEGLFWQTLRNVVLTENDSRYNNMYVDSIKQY

[11] = target: T1, Toll-like receptor 8 (Homo sapiens); assay: Agonist activity at human TLR8 transfected in HEK293T cells co-transfected with NF-kappaB and renilla assessed as increase in TLR8-induced NF-kappaB activity at 0.4 to 10 uM incubated for 48 hrs by Dual-luciferase reporter gene assay; assay type: cell-based; settings: filed as agonist, dose 0.4-10 µM
[12] = target: T1, Toll-like receptor 8 (Homo sapiens); assay: Agonist activity at TLR8 in human PBMC cells assessed as increase in TNF-alpha level incubated for 24 hrs by ELISA; assay type: cell-based; settings: filed as agonist, dose 0.4-10 µM

Chain of Nuclear factor NF-kappa-B complex (Homo sapiens) (P19838 whole entry, looked up): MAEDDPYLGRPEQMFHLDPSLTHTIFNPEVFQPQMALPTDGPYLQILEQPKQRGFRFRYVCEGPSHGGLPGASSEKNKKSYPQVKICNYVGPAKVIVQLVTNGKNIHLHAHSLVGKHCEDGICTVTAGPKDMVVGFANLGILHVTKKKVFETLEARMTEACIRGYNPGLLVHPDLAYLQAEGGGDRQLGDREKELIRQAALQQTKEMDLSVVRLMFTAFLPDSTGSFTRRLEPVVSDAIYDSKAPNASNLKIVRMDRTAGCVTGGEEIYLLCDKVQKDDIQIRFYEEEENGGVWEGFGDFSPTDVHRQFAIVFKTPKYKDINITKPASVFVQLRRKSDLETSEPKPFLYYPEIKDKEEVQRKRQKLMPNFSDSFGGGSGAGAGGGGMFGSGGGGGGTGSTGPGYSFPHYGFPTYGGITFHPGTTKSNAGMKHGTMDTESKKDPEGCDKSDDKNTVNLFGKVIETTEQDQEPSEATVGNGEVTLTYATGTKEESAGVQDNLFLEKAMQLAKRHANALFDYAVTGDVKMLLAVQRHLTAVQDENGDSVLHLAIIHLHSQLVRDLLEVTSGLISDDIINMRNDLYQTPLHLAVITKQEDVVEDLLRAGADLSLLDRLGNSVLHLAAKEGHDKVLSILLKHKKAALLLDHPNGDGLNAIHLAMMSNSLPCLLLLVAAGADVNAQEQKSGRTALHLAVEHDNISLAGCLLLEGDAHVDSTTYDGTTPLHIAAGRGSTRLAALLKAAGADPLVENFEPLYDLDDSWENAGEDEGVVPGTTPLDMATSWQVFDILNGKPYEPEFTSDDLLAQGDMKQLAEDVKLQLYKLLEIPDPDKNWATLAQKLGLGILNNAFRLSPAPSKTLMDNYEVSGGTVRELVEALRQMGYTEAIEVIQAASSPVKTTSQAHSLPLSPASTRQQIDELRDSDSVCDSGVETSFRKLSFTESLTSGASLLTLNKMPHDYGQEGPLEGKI
Chain of Nuclear factor NF-kappa-B complex (Homo sapiens) (Q00653 whole entry, looked up): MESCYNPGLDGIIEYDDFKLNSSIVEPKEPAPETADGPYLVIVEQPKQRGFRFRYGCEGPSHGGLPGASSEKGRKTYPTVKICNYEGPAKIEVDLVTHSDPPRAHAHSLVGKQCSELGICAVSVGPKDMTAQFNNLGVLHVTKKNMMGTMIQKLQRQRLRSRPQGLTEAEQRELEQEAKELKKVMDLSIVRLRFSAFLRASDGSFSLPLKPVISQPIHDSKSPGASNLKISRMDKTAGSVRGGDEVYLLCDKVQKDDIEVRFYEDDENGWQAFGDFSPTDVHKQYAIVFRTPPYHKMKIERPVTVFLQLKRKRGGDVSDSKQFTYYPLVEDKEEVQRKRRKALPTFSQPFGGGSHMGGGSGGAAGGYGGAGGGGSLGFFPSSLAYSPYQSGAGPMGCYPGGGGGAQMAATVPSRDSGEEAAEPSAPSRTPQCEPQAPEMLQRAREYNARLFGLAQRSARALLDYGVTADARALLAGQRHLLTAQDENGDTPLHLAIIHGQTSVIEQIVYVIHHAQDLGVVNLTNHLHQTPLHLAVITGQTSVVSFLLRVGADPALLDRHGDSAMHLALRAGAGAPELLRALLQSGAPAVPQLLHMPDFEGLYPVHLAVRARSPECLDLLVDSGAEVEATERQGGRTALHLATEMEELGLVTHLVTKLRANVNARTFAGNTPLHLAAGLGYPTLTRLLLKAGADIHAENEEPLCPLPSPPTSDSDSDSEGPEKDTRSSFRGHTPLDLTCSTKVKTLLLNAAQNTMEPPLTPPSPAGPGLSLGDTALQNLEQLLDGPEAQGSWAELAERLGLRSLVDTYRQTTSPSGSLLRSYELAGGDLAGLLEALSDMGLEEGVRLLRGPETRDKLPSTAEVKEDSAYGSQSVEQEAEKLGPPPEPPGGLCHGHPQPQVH
Chain of Nuclear factor NF-kappa-B complex (Homo sapiens) (Q04206 whole entry, looked up): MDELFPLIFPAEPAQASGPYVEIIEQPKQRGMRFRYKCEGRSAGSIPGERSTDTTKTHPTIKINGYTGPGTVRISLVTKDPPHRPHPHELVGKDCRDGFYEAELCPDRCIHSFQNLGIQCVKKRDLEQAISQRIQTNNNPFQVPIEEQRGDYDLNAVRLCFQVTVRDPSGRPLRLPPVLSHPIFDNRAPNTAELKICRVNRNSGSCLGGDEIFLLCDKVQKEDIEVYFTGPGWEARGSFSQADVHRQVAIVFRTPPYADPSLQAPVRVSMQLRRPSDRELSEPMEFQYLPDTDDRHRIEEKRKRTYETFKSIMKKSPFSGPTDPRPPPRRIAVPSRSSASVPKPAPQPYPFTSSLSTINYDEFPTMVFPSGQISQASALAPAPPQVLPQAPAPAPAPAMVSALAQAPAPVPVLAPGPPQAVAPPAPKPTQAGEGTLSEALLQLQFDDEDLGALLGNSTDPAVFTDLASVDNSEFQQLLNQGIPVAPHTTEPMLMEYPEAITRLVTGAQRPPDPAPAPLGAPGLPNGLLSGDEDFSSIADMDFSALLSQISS

## O=C(NCCn1cnc2cc(-c3noc(CCC4CCCC4)n3)ccc21)c1ccc(F)cc1
[1]
  selectivity ratio: > 15
[2]
  Activity: 65.06%
[3]
  IC50: 1.33 µM
[4]
  CC50 at 72 h: > 20 µM

## O=C(NCCn1cnc2cc(-c3noc(CCC4CCCC4)n3)ccc21)c1ccccc1Cl
[2]
  Activity: 10.63%
[4]
  CC50 at 72 h: > 20 µM

## COc1ccccc1C(=O)NCCn1cnc2cc(-c3noc(CCC4CCCC4)n3)ccc21
[1]
  selectivity ratio: > 12.9
[2]
  Activity: 76.09%
[3]
  IC50: 1.55 µM
[4]
  CC50 at 72 h: > 20 µM

## O=C(NCCn1cnc2cc(-c3noc(CCC4CCCC4)n3)ccc21)c1ccc(Br)cc1
[2]
  Activity: 38.03%
[4]
  CC50 at 72 h: > 20 µM

## Cc1ccc(C(=O)NCCn2cnc3cc(-c4noc(CCC5CCCC5)n4)ccc32)cc1
[1]
  selectivity ratio: > 13.1
[2]
  Activity: 54.11%
[3]
  IC50: 1.53 µM
[4]
  CC50 at 72 h: > 20 µM

## O=C(CCn1cnc2cc(-c3noc(CCc4ccccc4)n3)ccc21)N1CCCC1
[2]
  Activity: 24.46%
[4]
  CC50 at 72 h: > 20 µM

## Nc1ccn([C@@H]2CS[C@H](CO)O2)c(=O)n1 [LAMIVUDINE]
[5]
  IC50: > 100 µM
[6]
  CC50 at 72 h: > 100 µM
[1]
  selectivity ratio: > 1000
[2]
  Activity: 84.42%
[3]
  IC50: < 0.1 µM
[4]
  CC50 at 72 h: > 20 µM

## O=C(NCCn1cnc2cc(-c3noc(CCC4CCCC4)n3)ccc21)c1cccc(F)c1
[2]
  Activity: 45.92%
[4]
  CC50 at 72 h: > 20 µM

## O=C(CCn1cnc2cc(-c3noc(CCC4CCCC4)n3)ccc21)NC1CCCCC1
[2]
  Activity: 2.64%
[4]
  CC50 at 72 h: > 20 µM

## Cc1cccc(C(=O)NCCn2cnc3cc(-c4noc(CCC5CCCC5)n4)ccc32)c1
[2]
  Activity: 9.58%
[4]
  CC50 at 72 h: > 20 µM

## O=C(NCCn1cnc2cc(-c3noc(CCC4CCCC4)n3)ccc21)c1ccc(C(F)(F)F)cc1
[7]
  Ratio IC50: 150
[8]
  selectivity ratio: > 32.8
[5]
  IC50: 0.61 µM
[6]
  CC50 at 72 h: > 20 µM
[1]
  selectivity ratio: > 29
[2]
  Activity: 63.99%
[3]
  IC50: 0.69 µM
[4]
  CC50 at 72 h: > 20 µM

## O=C(NCCn1cnc2cc(-c3noc(CCC4CCCC4)n3)ccc21)c1ccc(Cl)cc1
[1]
  selectivity ratio: > 10.2
[2]
  Activity: 63.41%
[3]
  IC50: 1.96 µM
[4]
  CC50 at 72 h: > 20 µM

## COc1cccc(C(=O)NCCn2cnc3cc(-c4noc(CCC5CCCC5)n4)ccc32)c1
[1]
  selectivity ratio: > 12.5
[2]
  Activity: 70.78%
[3]
  IC50: 1.6 µM
[4]
  CC50 at 72 h: > 20 µM

## O=C(NCCn1cnc2cc(-c3noc(CCC4CCCC4)n3)ccc21)c1cccc(Br)c1
[1]
  selectivity ratio: > 6.02
[2]
  Activity: 64.39%
[3]
  IC50: 3.32 µM
[4]
  CC50 at 72 h: > 20 µM

## O=C(NCCn1cnc2cc(-c3noc(CCC4CCCC4)n3)ccc21)c1ccccc1
[2]
  Activity: 28.98%
[4]
  CC50 at 72 h: > 20 µM

## COc1ccc(C(=O)NCCn2cnc3cc(-c4noc(CCC5CCCC5)n4)ccc32)cc1
[1]
  selectivity ratio: > 7.58
[2]
  Activity: 73.8%
[3]
  IC50: 2.64 µM
[4]
  CC50 at 72 h: > 20 µM

## O=C(NCCn1cnc2cc(-c3noc(CCC4CCCC4)n3)ccc21)c1ccccc1Br
[1]
  selectivity ratio: > 12.4
[2]
  Activity: 53.47%
[3]
  IC50: 1.61 µM
[4]
  CC50 at 72 h: > 20 µM

## O=C(NCCn1cnc2cc(-c3noc(CCC4CCCC4)n3)ccc21)c1ccccc1I
[2]
  Activity: 30.88%
[4]
  CC50 at 72 h: > 20 µM

## O=C(NCCn1cnc2cc(-c3noc(CCC4CCCC4)n3)ccc21)c1cccc(Cl)c1
[1]
  selectivity ratio: > 23.5
[2]
  Activity: 82.78%
[3]
  IC50: 0.85 µM
[4]
  CC50 at 72 h: > 20 µM

## O=C(NCCn1cnc2cc(-c3noc(CCC4CCCC4)n3)ccc21)c1cccc(I)c1
[1]
  selectivity ratio: > 12
[2]
  Activity: 68.86%
[3]
  IC50: 1.67 µM
[4]
  CC50 at 72 h: > 20 µM

## O=C(CCn1cnc2cc(-c3noc(CCC4CCCC4)n3)ccc21)N1CCOCC1
[2]
  Activity: 0.02%
[4]
  CC50 at 72 h: > 20 µM

## O=C(CCn1cnc2cc(-c3noc(CCC4CCCC4)n3)ccc21)N1CCCC1
[1]
  selectivity ratio: > 3.69
[2]
  Activity: 48.57%
[3]
  IC50: 5.17 µM
[4]
  CC50 at 72 h: > 20 µM

## O=C(NCCn1cnc2cc(-c3noc(CCC4CCCC4)n3)ccc21)c1ccccc1C(F)(F)F
[1]
  selectivity ratio: > 5.14
[2]
  Activity: 46.02%
[3]
  IC50: 3.89 µM
[4]
  CC50 at 72 h: > 20 µM

## O=C(CCn1cnc2cc(-c3noc(CCC4CCCCC4)n3)ccc21)N1CCCC1
[2]
  Activity: 0.74%
[4]
  CC50 at 72 h: > 20 µM

## O=C(NCCn1cnc2cc(-c3noc(CCC4CCCC4)n3)ccc21)c1ccccc1F
[1]
  selectivity ratio: > 18.7
[2]
  Activity: 54.72%
[3]
  IC50: 1.07 µM
[4]
  CC50 at 72 h: > 20 µM

## O=C(CCn1cnc2cc(-c3noc(CCC4CCCC4)n3)ccc21)N1CCCCC1
[1]
  selectivity ratio: > 3.17
[2]
  Activity: 53.4%
[3]
  IC50: 6.3 µM
[4]
  CC50 at 72 h: > 20 µM

## O=C(NCCn1cnc2cc(-c3noc(CCC4CCCC4)n3)ccc21)c1ccc(I)cc1
[1]
  selectivity ratio: > 7.6
[2]
  Activity: 54.76%
[3]
  IC50: 2.63 µM
[4]
  CC50 at 72 h: > 20 µM

## Cc1ccccc1C(=O)NCCn1cnc2cc(-c3noc(CCC4CCCC4)n3)ccc21
[2]
  Activity: 6.59%
[4]
  CC50 at 72 h: > 20 µM

## O=C(CCn1cnc2cc(-c3noc(CCC4CCCC4)n3)ccc21)NC1CCCC1
[2]
  Activity: 21.36%
[4]
  CC50 at 72 h: > 20 µM

## Cc1ccccc1NC(=O)CCn1cnc2cc(-c3noc(CCC4CCCC4)n3)ccc21
[2]
  Activity: 7.43%
[4]
  CC50 at 72 h: > 20 µM

## O=C(NCCn1cnc2cc(-c3noc(CCC4CCCC4)n3)ccc21)c1cccc(C(F)(F)F)c1
[7]
  Ratio IC50: 150
[8]
  selectivity ratio: > 45.5
[5]
  IC50: 0.44 µM
[9]
  Activity: inactive
[10]
  Activity: Dose-Dependent Effect
[6]
  CC50 at 72 h: > 20 µM
[11]
  Activity: Active
[12]
  Activity: Dose-Dependent Effect
[1]
  selectivity ratio: > 37.7
[2]
  Activity: 84.47%
[3]
  IC50: 0.53 µM
[4]
  CC50 at 72 h: > 20 µM
